# Values joined by “and” are separate entries in the source; they are usually repeats but may differ in a detail not shown here. Identical values can stand only once. “Also recorded” adds a separate entry of the source. Like-named read-outs stand apart in the source and are kept apart here.
# Tests used:
# Plasma stability assay = assay type: in vitro ADME, mouse; details: for remaining at 1 h, 0.315 mmol/L: mouse plasma, 37° C., read-out: Intact peptide after 1 h in plasma
# Method: (§1) Peptides (1.5 g/L) dissolved in saline/TWEEN 80/DMSO (90:5:5, v/v) were mixed with mouse plasma or human cerebrospinal fluid, respectively, to a final concentration of 0.315 mmol/L and incubated in a thermomixer (37° C., 750 rpm) Aliquots (45 μL) were mixed with aqueous acetonitrile (90%, v/v, 300 μL) containing formic acid (FA, 0.1%, v/v) and incubated on ice (30 min). After two centrifugation steps (12,000×g, 5 min), the supernatant (300 μL) was diluted in water (900 μL), dried by lyophilization, reconstituted in aqueous acetonitrile (4.5%, v/v) containing FA (0.1%, v/v), stored at −20° C., and analyzed with reverse-phase chromatography (RPC) on a C8-column (1 mm×150 mm) with a linear aqueous acetonitrile gradient typically from 5 to 95% eluent B in 15 min (eluent A: 0.1% (v/v) aqueous FA; eluent B: 90% aqueous acetonitrile containing 0.1% (v/v) FA. The RPC was coupled on-line to a UV detector measuring the absorbance at 214 nm and a mass spectrometer (MS) for peak identification. Peptide quantities were estimated using peak areas of the UV signal relative to the initial peak areas (t=0).
# female CD-1 mice [1] = assay: Formalin foot assay; assay type: in vivo, mouse; details: s.c.
# Method: (§2) Mice were allowed an acclimatization period of at least one week in the animal facility before experiments.
# On the day of the experiment, mice were acclimatized to the experimental setup by putting them in darkened, non-transparent plexiglas cylinders (height, 20 cm; diameter, 9 cm) placed on a glass plane for 2 h. […] After successful injection, mice were immediately placed into cylinders and their behavior was monitored for 1 h. […] The accumulated licking and biting time of each animal was determined and recorded in 5 min bins. The total response time was plotted as early phase 1 from 0 to 5 min, and late phase 2 from 20 to 40 min after formalin injection.
# female CD-1 mice [2] = assay: Respiratory rate assay; details: s.c.; for breathing depression: KK-103 13 mg/kg, morphine 10 mg/kg, FIG. 10C
# Method: The respiratory rate was assessed in awake mice lightly restrained in a well-ventilated 50 mL falcon tube with a darkened tip. Prior to the drug treatment, each animal was habituated in the tube for 30 min. The falcon tube was secured onto a stand facing lengthwise to a video camera. […] Animals were recorded at selected time points for 10 min to measure the respiration rate.
# female CD1 mice [3] = details: mouse, in vivo; cited from earlier work
# female CD1 mice [4] = assay: Dependence test (naloxone-induced jumps); details: twice daily s.c., KK-103 13 mg/kg, morphine 10 mg/kg; naloxone 4 mg/kg i.p., first 10 min
# human DOR = human DOR (Homo sapiens, UniProt P41143); details: relative scintillation compared to Leu-ENK at 6 nmol/L, [3H]DADLE displacement, mean of duplicates
# Sequence of human DOR (P41143 whole entry): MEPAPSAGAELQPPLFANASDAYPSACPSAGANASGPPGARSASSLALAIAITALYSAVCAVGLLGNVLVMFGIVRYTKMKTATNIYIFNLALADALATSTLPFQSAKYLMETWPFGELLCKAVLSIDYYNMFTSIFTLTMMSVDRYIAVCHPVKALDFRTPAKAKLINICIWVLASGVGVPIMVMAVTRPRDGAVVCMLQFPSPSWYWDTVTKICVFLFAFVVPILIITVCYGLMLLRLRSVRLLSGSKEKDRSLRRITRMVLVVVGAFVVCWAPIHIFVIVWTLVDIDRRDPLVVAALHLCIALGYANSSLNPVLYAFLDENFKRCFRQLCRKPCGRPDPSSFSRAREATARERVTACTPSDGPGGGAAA
# Method: Binding studies were performed by Eurofins Scientific (Cereb, France). Briefly, COS-1 cells transfected with plasmids encoding human DOR (Gene ID: 4985) were grown in Dulbecco's modified Eagle's medium with 10% fetal calf serum and scraped from plates. Membranes were prepared using a Dounce homogenizer and stored at −80° C. until used. Membranes (40 μg protein/tube) were suspended in Tris-HCl, pH 7.4, for 2 h at 25° C., rapidly filtered on 0.1% polyethylenimine-pretreated GF/B filters and washed with the same cold Tris buffer (3×) using a Brandel cell harvester. […] Nonspecific binding was determined in the presence of naltrexone (10 μmol/L).
# CSF stability assay = assay type: in vitro ADME, human; details: 5 h of incubation
# Method: as §1
# [5] = Stability in the presence of human liver microsomes; assay type: in vitro ADME; details: after 1 h, read-out: drug degradation in the presence of human liver microsomes
# [6] = test system: human liver microsome enzymes; assay: Inhibition of human liver microsome enzymes; assay type: in vitro ADME
# female CD1 mice [7] = assay: Toxicity, highest deliverable single dose; assay type: in vivo, mouse; details: single s.c. dose
# Method: Animals were monitored and evaluated every 30 min. After 3 h, the time of maximal antinociceptive effect, animals were euthanized.
# [8] = Plasma and brain concentrations after injection (UPLC); assay type: in vivo; details: female, CD-1, mouse; for tissue level at time at 2 h: 2 h after s.c. injection; for half-life: 50 mg/kg, read-out: elimination half-life
# Method: Blood collection from mice was performed by saphenous vein punctuation (volume withdrawn <7 mL/kg) followed by a cardiac puncture later, allowing for 2 sampling time points per animal with a minimum sampling interval of 50 min. Cardiac puncture was an experimental endpoint after which animals were euthanized using isoflurane followed by cervical dislocation. Blood samples were collected in EDTA coated collection tubes and chilled on ice immediately after collection. Blood plasma was separated from whole blood by centrifugation at 2.000 g for 7 min and carefully removed from the cell pellet. Blood plasma samples were immediately frozen on dry ice and stored at −80 C until further analysis.
# Samples for liquid chromatography-mass spectrometry analysis were prepared by acetonitrile protein precipitation. Therefore, 50 μL of plasma was combined with 300 μL ice cold 90% acetonitrile containing 0.1% formic acid, briefly vortexed and put on ice for 30 min. After that samples were centrifuged at 4 C for 5 min (>12 k rpm) and supernatant (325 μL) transferred in a new tube. The previous centrifugation step was repeated and a final volume of 305 μL of the supernatant transferred into a new 1.5 mL tube. Water (800 μL) was added to samples after which they were frozen and lyophilized. The dried samples were resolubilized in 50 μL 4.5% acetonitrile, 0.1% formic acid in water, vortexed (1 min), sonicated (5 min), vortexed (1 min) and centrifuged for 5 min (>12 k rpm). Samples were measured in an ACQUITY UPLC H-Class chromatography system (Waters, Milford, MA) and a sample volume of 10 μL was injected onto the reverse phase column.
# An ACQUITY UPLC H-Class chromatography system (Waters, Milford, MA) coupled on-line to a photodiode array detector (absorbance recorded at 214 nm, Waters) and to the electrospray ionization source on a mass spectrometer (QDa detector, Waters) operated in the positive ion mode was used. Separation relied on a BEH-C18 column (inner diameter: 1.1 mm; length: 50 mm; particle size: 1.7 μm, Waters) at a flow rate of 0.1 mL/min using a linear aqueous acetonitrile gradient in the presence of FA (0.1%, v/v).
# Ionization was carried out at a source temperature of 450° C. using a cone voltage of 10 V and a capillary voltage of 1.5 kV. Mass spectra were typically acquired for an m/z range from 50 to 1250 at a sampling rate of 2 points per second. Quantities of the peptide were determined based on a calibration curve of the analyte in mouse plasma and the peak areas of the UV signal at 214 nm as well as mass spectrometry by detecting the singly charged molecular ions.
# female CD-1 mice [9] = assay: Open field test; details: 15 mg/kg s.c.
# Excerpt: as §2
# [10] = Solubility in injection vehicle; assay type: physicochemical; details: normal saline/TWEEN 80 (9/1, v/v) injection vehicle
structure (smiles),measurement,setting,value
"CC(C)C[C@H](NC(=O)[C@H](Cc1ccccc1)NC(=O)CNC(=O)CNC(=O)[C@@H](N)Cc1ccc(O)cc1)C(=O)O [Leu-ENK, YGGFL, reference compound]","remaining at 1 h, 0.315 mmol/L",Plasma stability assay,23 ± 3%
CN1CC[C@]23c4c5ccc(O)c4O[C@H]2[C@@H](O)C=C[C@H]3[C@H]1C5 [morphine],"nociceptive response in phase 2, in words","female CD-1 mice [1]; 10 mg/kg, phase 2 (20-40 min)",completely diminished the nociceptive response
same,"reduction of paw licking and biting time, phase 1 (0-5 min), compared to the control","female CD-1 mice [1]; morphine 10 mg/kg, KK-103 13 mg/kg",30%
same,decrease of respiratory rate compared with vehicle control,"female CD-1 mice [2]; 10 mg/kg, 30 min post injection",56%
same,breathing depression,female CD-1 mice [2],significant reduction of breathing rate
same,dose up to which safe to use,female CD1 mice [3],up to 60 mg/kg
same,physical dependence: withdrawal jumps after naloxone,female CD1 mice [4],significant withdrawal syndromes
COC(=O)[C@H](CC(C)C)NC(=O)[C@H](Cc1ccccc1)NC(=O)CNC(=O)CNC(=O)[C@H](Cc1ccc(O)cc1)NC(=O)C(C)(C)C [KK-102],Relative Binding to DOR,human DOR; listed as KK-102/ KK-103,68%
same,conversion in mouse plasma (deesterification of methyl ester),Plasma stability assay,converting to KK-103; also recorded: rapidly deesterifies to KK-103
same,"remaining at 1 h, 0.315 mmol/L",Plasma stability assay,93 ± 1%
CC(C)C[C@H](NC(=O)[C@H](Cc1ccccc1)NC(=O)CNC(=O)CNC(=O)[C@H](Cc1ccc(O)cc1)NC(=O)C(C)(C)C)C(=O)O [KK-103],Relative Binding to DOR,human DOR,65% and ~70%
same,time stable in mouse plasma,Plasma stability assay,at least 5 h
same,half-life in mouse plasma,Plasma stability assay; extrapolated,36 h
same,"remaining at 1 h, 0.315 mmol/L",Plasma stability assay,93%
same,half-life at 0.315 mmol/L,"Plasma stability assay; mouse, plasma, extrapolated",37 h
same,stability in cerebrospinal fluid,CSF stability assay,almost no degradation
same,metabolised at 1 h,[5],< 10%
same,inhibition of human liver microsome enzymes,[6],did not inhibit
same,toxicity at the highest deliverable dose,female CD1 mice [7],no toxicity
same,respiration rate versus vehicle,"female CD-1 mice [2]; 13 mg/kg, any time point between 30 and 240 min",comparable to that of mice treated with vehicle
same,breathing depression,female CD-1 mice [2],did not induce breathing depression
same,tissue level at time at 2 h,"[8]; brain, sc, read-out: concentration in brain",200 ng/g
same,half-life,"[8]; plasma, iv",4.8 min
same,half-life,"[8]; plasma, sc",8.9 min
same,tissue level at time at 2 h,"[8]; plasma, sc, read-out: concentration in plasma",170000 ng/g
same,effect on locomotor activity,female CD-1 mice [9],without effecting the locomotor activity
same,solubility,[10],5000 µg/mL
same,physical dependence: withdrawal jumps after naloxone,female CD1 mice [4],not a single jump was observed
C=CCCC(=O)N[C@@H](Cc1ccc(O)cc1)C(=O)NCC(=O)NCC(=O)N[C@@H](Cc1ccccc1)C(=O)N[C@@H](CC(C)C)C(=O)OC [KK-108],Relative Binding to DOR,human DOR,34%
same,"remaining at 1 h, 0.315 mmol/L",Plasma stability assay,73 ± 7%
COC(=O)[C@H](CC(C)C)NC(=O)[C@H](Cc1ccccc1)NC(=O)CNC(=O)CNC(=O)[C@H](Cc1ccc(O)cc1)NC(C)=O [KK-14],Relative Binding to DOR,human DOR,38%
same,"remaining at 1 h, 0.315 mmol/L",Plasma stability assay,82 ± 3%
CCCCCCCC(=O)N[C@@H](Cc1ccc(O)cc1)C(=O)NCC(=O)NCC(=O)N[C@@H](Cc1ccccc1)C(=O)N[C@@H](CC(C)C)C(=O)OC [KK-105],Relative Binding to DOR,human DOR,59%
same,"remaining at 1 h, 0.315 mmol/L",Plasma stability assay,80 ± 12%
COC(=O)[C@H](CC(C)C)NC(=O)[C@H](Cc1ccccc1)NC(=O)CNC(=O)CNC(=O)[C@H](Cc1ccc(O)cc1)NC(=O)C1CCCCC1 [KK-112],Relative Binding to DOR,human DOR,13%
same,"remaining at 1 h, 0.315 mmol/L",Plasma stability assay,62 ± 7%
CCCCCC(=O)N[C@@H](Cc1ccc(O)cc1)C(=O)NCC(=O)NCC(=O)N[C@@H](Cc1ccccc1)C(=O)N[C@@H](CC(C)C)C(=O)OC [KK-93],Relative Binding to DOR,human DOR,33%
same,"remaining at 1 h, 0.315 mmol/L",Plasma stability assay,85 ± 11%
COC(=O)[C@H](CC(C)C)NC(=O)[C@H](Cc1ccccc1)NC(=O)CNC(=O)CNC(=O)[C@H](Cc1ccc(O)cc1)NC(=O)Cc1ccccc1 [KK-81],Relative Binding to DOR,human DOR,41%
same,"remaining at 1 h, 0.315 mmol/L",Plasma stability assay,88 ± 11%

# Source: patent US20240010679A1, “ANTIN[…] AND USES THEREOF” (THE UNIVERSITY OF BRITISH COLUMBIA, priority 2020, published 2024)
